# Bases are written 5' to 3'; sugars and linkages follow in the same order, as letters with counts (s phosphorothioate, o phosphodiester; PS: all linkages phosphorothioate). The collection does not say whether C is 5-methylated. l = locked nucleic acid (LNA); d = 2'-deoxy (DNA)
# Target: Tau
# Assay: rat primary cortical neurons, FLIPR, 25 uM ASO
row,Sequence,calcium oscillation score
1,"CTTGGGTGGAGTACGGACCA (sugars l3 d14 l3, PS)",0 % of control
2,"CATGATCTTAGGCTGG (sugars l3 d10 l3, PS)",7.83 % of control
3,"GAAAACCATCAACCAC (sugars l4 d8 l4, PS)",44.3 % of control
4,"GTGATATTGTCCAGGG (sugars l3 d10 l3, PS)",14.8 % of control
5,"AGGTCAACTGGTTTGT (sugars l3 d10 l3, PS)",0 % of control
6,"TTATTTCCAAATTCACTTTT (sugars lldlddldddddddddllll, PS)",131 % of control
7,"ACTGCGAGGAGCAGCT (sugars l3 d10 l3, PS)",48.1 % of control
8,"TTTTAATTAAATTTCTCCCT (sugars l4 d13 l3, PS)",104 % of control
9,"ATGAGCCACACTTGGAGGTC (sugars l3 d14 l3, PS)",19.9 % of control
10,"CTTTCCTAATTCCCAAATTC (sugars l3 d15 l2, PS)",60.9 % of control
11,"CCTAATCCTGTGCT (sugars l3 d8 l3, PS)",62.6 % of control
12,"TTTGTCATCGCTTCCA (sugars l3 d10 l3, PS)",20.7 % of control
13,"AACTCAAATCAATTCTCATT (sugars l4 d12 l4, PS)",73.2 % of control
14,"TTACAAGCATTTCAAG (sugars l3 d10 l3, PS)",36.8 % of control
15,"CAAGAGGCACAAGTC (sugars l3 d9 l3, PS)",112 % of control
16,"CACTGTTACACATTTA (sugars l4 d8 l4, PS)",70.6 % of control
17,"ATCATTTTTTATTCATAACT (sugars l4 d12 l4, PS)",53.4 % of control
18,"ACCTCATTAAGATCACC (sugars l2 d11 l4, PS)",69.7 % of control
19,"TATACAGTTGGCCCTACCAT (sugars l3 d14 l3, PS)",16.7 % of control
20,"GTTAGCCCTAAAGTCCCAGG (sugars l3 d14 l3, PS)",27.9 % of control
21,"GCGGAAGGTCAGCTTG (sugars l3 d10 l3, PS)",25.9 % of control
22,"CATCCATTTTCTGACTC (sugars l4 d11 l2, PS)",52 % of control

row,Sequence,calcium oscillation score
1,"TTTATTTCCAAATTCACTTT (sugars l5 d10 l5, PS)",≥ 200 % of control
2,"TCTTATTGCTTTCCAAT (sugars l3 d10 l4, PS)",101 % of control
3,"CACTCTCTGCATATAT (sugars l4 d9 l3, PS)",69 % of control
4,"CGCTTCCAGTCCCG (sugars l3 d8 l3, PS)",107 % of control
5,"GAGGCACAAGTCCTTA (sugars l3 d10 l3, PS)",76.2 % of control
6,"CCATCTTAATTCATTTAATT (sugars l4 d13 l3, PS)",69.1 % of control
7,"CAGTCCCGTCTTTGCT (sugars l3 d10 l3, PS)",0 % of control
8,"CTGATCATAATCCTACC (sugars l3 d11 l3, PS)",54.9 % of control
9,"AAATCCCTCTACTCCAG (sugars l2 d12 l3, PS)",51.4 % of control
10,"AATTATTAAATCTTCTCTTA (sugars l4 d12 l4, PS)",62.6 % of control
11,"CGAGTCTACCATGTCG (sugars l3 d10 l3, PS)",103 % of control
12,"TGGAGCCGATCTTGGACTTG (sugars l3 d14 l3, PS)",0 % of control
13,"CTTTATTTCCAAATTCACT (sugars l4 d10 l2 d1 l2, PS)",93.2 % of control
14,"ACATCTCTCTAGACATC (sugars l4 d10 l3, PS)",68.4 % of control
15,"TCAGCTCTTCCATAAGCAGG (sugars l3 d14 l3, PS)",38.5 % of control
16,"CTACACCACTGTTCCATA (sugars l1 d15 l2, PS)",62 % of control
17,"AACATCTAAACACCTCAA (sugars l4 d10 l4, PS)",78.9 % of control
18,"TAGTCACTCTGGTG (sugars l3 d8 l3, PS)",81.9 % of control
19,"CACTTTCCTAATTCCCAAA (sugars l3 d14 l2, PS)",68 % of control
20,"TTAACTCATCAACACCT (sugars l4 d9 l4, PS)",86.6 % of control
21,"TTCCATCCTAAGTCAACC (sugars l3 d13 l2, PS)",70.6 % of control
22,"TTACCCATCTTAATTCATTT (sugars l4 d14 l2, PS)",96.1 % of control

row,Sequence,calcium oscillation score
1,"CAACTCTTAGCATCCACT (sugars l2 d14 l2, PS)",51.6 % of control
2,"ACCTCGTCAGCTAGCG (sugars l3 d10 l3, PS)",65.2 % of control
3,"CTTTATTTCCAAATTCAC (sugars lldlddddddddddldll, PS)",136 % of control
4,"TAGGAGAGGAAGGTGG (sugars l3 d10 l3, PS)",3.7 % of control
5,"CATGAGCACTAACTCTAAGT (sugars l3 d14 l3, PS)",47.6 % of control
6,"CCAGCGTGATCTTC (sugars l3 d8 l3, PS)",120 % of control
7,"GCTTTTCCCAATTATTA (sugars l4 d11 l2, PS)",62 % of control
8,"ACTTATCTATCCATCTAT (sugars l4 d11 l3, PS)",80.2 % of control
9,"GATTAACCAATTAACCGAAC (sugars l3 d14 l3, PS)",98.8 % of control
10,"ATTTCCAAATTCACTTTTAC (sugars lldldldddddddddldlll, PS)",122 % of control
11,"TTCTAGTTATACAGTTGGCC (sugars l3 d14 l3, PS)",26.2 % of control
12,"TTGTACACGATCTCCG (sugars l3 d10 l3, PS)",55.2 % of control
13,"AACCACTCTAACATCTTA (sugars l4 d11 l3, PS)",86.8 % of control
14,"TTAACCAGCTAGTGGTGCCA (sugars l3 d14 l3, PS)",0 % of control
15,"TCTAAGTAGACCCTGGCCAC (sugars l3 d14 l3, PS)",23.8 % of control
16,"CTTTTTTTTTCCACACTCTC (sugars l2 d14 l4, PS)",49 % of control
17,"TATTTCCAAATTCACTTTTA (sugars lldldlddddddddddllll, PS)",127 % of control
18,"CTTGGCTTTGGCGTT (sugars l3 d9 l3, PS)",82.4 % of control
19,"TGATTAACCAATTAACCGAA (sugars l3 d14 l3, PS)",2.59 % of control
20,"CCCAGCGTGATCTTCCATCA (sugars l5 d11 l4, PS)",106 % of control
21,"GGCGTTCTCGCGGAAG (sugars l3 d10 l3, PS)",102 % of control
22,"TATTGAACTCACCCACTC (sugars l2 d13 l3, PS)",69 % of control

row,Sequence,calcium oscillation score
1,"GGCGACTTGTACAC (sugars l3 d8 l3, PS)",117 % of control
2,"TTCCATCACTTCGAACTCCT (sugars l3 d14 l3, PS)",13.6 % of control
3,"CCATCATACTCCAAGTT (sugars l3 d12 l2, PS)",60.8 % of control
4,"TCCTCTCCTTTAAGAAA (sugars l3 d12 l2, PS)",79.1 % of control
5,"TCAAACTAATATTAACACT (sugars l4 d11 l4, PS)",80.8 % of control
6,"TCCCTTAACAATATGCT (sugars l2 d11 l4, PS)",75.1 % of control
7,"GGCGCAGGCGCGAGCA (sugars l3 d10 l3, PS)",7.62 % of control
8,"CCATCAATTTCCCTGT (sugars l2 d10 l4, PS)",56.3 % of control
9,"CGAGCCAAAGCCGA (sugars l3 d8 l3, PS)",116 % of control
10,"TTAATTCATAAATGACTATA (sugars l3 d14 l3, PS)",58.4 % of control
11,"CTTTATTTCCAAATTCACT (sugars l4 d10 l1 d2 l2, PS)",125 % of control
12,"CCTTTTAAAAGAACCCT (sugars l3 d11 l3, PS)",96 % of control
13,"TGTTGCCTAATGAGCC (sugars l3 d10 l3, PS)",172 % of control
14,"ACTGATCATAATCCTA (sugars l3 d9 l4, PS)",81.1 % of control
15,"GATTTTACTACTCTCTT (sugars l4 d9 l4, PS)",85.5 % of control
16,"GTCGATGCTGCCGG (sugars l3 d8 l3, PS)",36.5 % of control
17,"TATCATTTTCTTTTTCAAAA (sugars l4 d12 l4, PS)",37.3 % of control
18,"GCAGGCGCGAGCAGCG (sugars l3 d10 l3, PS)",23.5 % of control
19,"TTTTCTTGTTCTAACCCC (sugars l2 d13 l3, PS)",50.1 % of control
20,"AACTGATTCCATCACCA (sugars l3 d11 l3, PS)",69.7 % of control
21,"CATCAAATCCATGCAT (sugars l4 d8 l4, PS)",76.7 % of control
22,"TACCATGTCGATGCT (sugars l3 d9 l3, PS)",81.6 % of control

row,Sequence,calcium oscillation score
1,"AAATATCCTTACCATCCTAT (sugars l2 d15 l3, PS)",78.8 % of control
2,"CTTTATTTCCAAATTCACTT (sugars l2 d16 l2, PS)",195 % of control
3,"TTCCATCTTACTAATAG (sugars l4 d9 l4, PS)",49.2 % of control
4,"AACAAACAAAAATCCCCTA (sugars l4 d11 l4, PS)",85.7 % of control
5,"AGAGGAACGTGTGGAT (sugars l3 d10 l3, PS)",25.9 % of control
6,"ACAAACAATCCATTTATAT (sugars l4 d11 l4, PS)",46.2 % of control
7,"TTCATGTTAAATCCCTC (sugars l4 d10 l3, PS)",103 % of control
8,"ATTTCCAAATTCACTTTTAC (sugars llddldldddddddddllll, PS)",143 % of control
9,"GTTAGCCCTAAAGT (sugars l3 d8 l3, PS)",61 % of control
10,"TTGGAGTGCTCTTAGCATCA (sugars l3 d14 l3, PS)",7.78 % of control
11,"CTTTGCTTTTACTGACCATG (sugars l3 d14 l3, PS)",0 % of control
12,"AGAATATTACACCATC (sugars l4 d8 l4, PS)",102 % of control
13,"CATCCTAAGTCAACCAC (sugars l3 d11 l3, PS)",72.7 % of control
14,"CTTAATTCATTTAATTCTCT (sugars l3 d13 l4, PS)",90.1 % of control
15,"AGCCCTAAAGTCCCAG (sugars l3 d10 l3, PS)",38.1 % of control
16,"AACTCATTTACCAATTATCT (sugars l4 d13 l3, PS)",67.3 % of control
17,"GAGGAACGTGTGGATG (sugars l3 d10 l3, PS)",3.7 % of control
18,"ACAGCCATTTTCCATAT (sugars l3 d11 l3, PS)",59.3 % of control
19,"TCCCTTAATTTCAC (sugars l3 d8 l3, PS)",133 % of control
20,"TATTTCCAAATTCACTTTTA (sugars l5 d11 l4, PS)",121 % of control
